Measurements reported in paper PMC11971462, “Generation and validation of a novel multitarget small molecule in glioblastoma” (Cell Death & Disease, 2025).

Tested on: GNS166 cells

For `C#CCN(Cc1cc2cc(OCCCN3CCCCC3)ccc2n1S(=O)(=O)c1ccccc1)C(=O)CCCCCCC(=O)NO` [DDI], the “A2M log2FoldChange” value was 2.665, the “ABCD2 log2FoldChange” value was 5.236 and the “ABCG1 log2FoldChange” value was 3.412. For the same molecule, the “ABLIM2 log2FoldChange” value was 4.711, the “ABLIM3 log2FoldChange” value was 3.639 and the “ACSL6 log2FoldChange” value was 2.978. For the same molecule, the “ACSM3 log2FoldChange” value was 2.457, the “ACTBL2 log2FoldChange” value was 4.551 and the “ADAMTS2 log2FoldChange” value was 6.235. For the same molecule, the “ADAMTS7 log2FoldChange” value was 2.1929, the “ADAMTS8 log2FoldChange” value was 3.596 and the “ADCYAP1R1 log2FoldChange” value was 3.806. The “ADGRG4 log2FoldChange” value was 6.334, the “ADRB1 log2FoldChange” value was 2.369 and the “AKR1C3 log2FoldChange” value was 4.683. For the same molecule, the “ALDH1A1 log2FoldChange” value was 3.2419, the “ALPL log2FoldChange” value was 3.15 and the “AMER2 log2FoldChange” value was 3.985. The “ANGPTL4 log2FoldChange” value was 2.513, the “ANGPTL6 log2FoldChange” value was 3.595 and the “ANKRD1 log2FoldChange” value was 3.607. The “ANKRD24 log2FoldChange” value was 3.419, the “ANO5 log2FoldChange” value was 4.46 and the “ANOS1 log2FoldChange” value was 4.667. For the same molecule, the “APC2 log2FoldChange” value was 2.08, the “ARHGAP4 log2FoldChange” value was 2.074 and the “ARMH1 log2FoldChange” value was 2.688. For the same molecule, the “ARPP21 log2FoldChange” value was 2.016, the “ASPHD1 log2FoldChange” value was 2.1055 and the “ASXL3 log2FoldChange” value was 3.768. The “ATCAY log2FoldChange” value was 4.501, the “ATP6V1C2 log2FoldChange” value was 2.012 and the “AZIN2 log2FoldChange” value was 3.645. For the same molecule, the “B3GALT1 log2FoldChange” value was 2.502, the “BAIAP3 log2FoldChange” value was 2.116 and the “BEST1 log2FoldChange” value was 2.175. For the same molecule, the “BMF log2FoldChange” value was 2.488, the “BMP7 log2FoldChange” value was 2.795 and the “BRINP1 log2FoldChange” value was 6.679. The “C2orf81 log2FoldChange” value was 2.053, the “C5AR1 log2FoldChange” value was 2.131 and the “C14orf132 log2FoldChange” value was 5.7. For the same molecule, the “CACNA1H log2FoldChange” value was 4.953, the “CACNA2D2 log2FoldChange” value was 5.172 and the “CADM3 log2FoldChange” value was 6.675. For the same molecule, the “CALHM5 log2FoldChange” value was 2.928, the “CALY log2FoldChange” value was 5.625 and the “CAMK2N2 log2FoldChange” value was 2.028. The “CARMIL2 log2FoldChange” value was 3.403, the “CARMIL3 log2FoldChange” value was 3.869 and the “CCDC39 log2FoldChange” value was 4.487. For the same molecule, the “CCDC92B log2FoldChange” value was 5.8, the “CCDC110 log2FoldChange” value was 2.494 and the “CCDC148 log2FoldChange” value was 2.41. For the same molecule, the “CCDC160 log2FoldChange” value was 2.467, the “CCDC181 log2FoldChange” value was 2.436 and the “CCDC183 log2FoldChange” value was 2.45. The “CCM2L log2FoldChange” value was 4.732, the “CD22 log2FoldChange” value was 2.4858 and the “CDYL2 log2FoldChange” value was 2.827. The “CECR2 log2FoldChange” value was 4.106, the “CELF5 log2FoldChange” value was 4.62 and the “CFAP43 log2FoldChange” value was 2.577. For the same molecule, the “CFAP54 log2FoldChange” value was 2.381, the “CFAP57 log2FoldChange” value was 3.908 and the “CFAP298-TCP10L log2FoldChange” value was 2.613. For the same molecule, the “CHGB log2FoldChange” value was 2.484, the “CHRD log2FoldChange” value was 2.364 and the “CHST9 log2FoldChange” value was 3.903. The “CKMT1A log2FoldChange” value was 5.211, the “CLEC19A log2FoldChange” value was 2.635 and the “CLIC5 log2FoldChange” value was 2.4345. The “COL2A1 log2FoldChange” value was 3.044, the “COL6A3 log2FoldChange” value was 4.472 and the “CPED1 log2FoldChange” value was 2.118. For the same molecule, the “CPLX1 log2FoldChange” value was 3.672, the “CPM log2FoldChange” value was 2.471 and the “CRABP1 log2FoldChange” value was 4.4. The “CRTAC1 log2FoldChange” value was 4.102, the “CRYAB log2FoldChange” value was 3.702 and the “CSMD2 log2FoldChange” value was 3.997. The “CSRNP3 log2FoldChange” value was 2.27, the “CTSH log2FoldChange” value was 2.081 and the “CYP1A1 log2FoldChange” value was 3.053. For the same molecule, the “CYP2S1 log2FoldChange” value was 2.662, the “CYP4F22 log2FoldChange” value was 6.411 and the “DAPL1 log2FoldChange” value was 2.233. For the same molecule, the “DCAF8L1 log2FoldChange” value was 5.4838, the “DDIT4L log2FoldChange” value was 2.364 and the “DENND6B log2FoldChange” value was 2.257. For the same molecule, the “DGKI log2FoldChange” value was 3.175, the “DHH log2FoldChange” value was 3.784 and the “DLL3 log2FoldChange” value was 3.7947. For the same molecule, the “DLX3 log2FoldChange” value was 2.236, the “DMBX1 log2FoldChange” value was 2.746 and the “DNAAF1 log2FoldChange” value was 4.023. The “DNAH7 log2FoldChange” value was 3.23, the “DNAI1 log2FoldChange” value was 4.453 and the “DNAI3 log2FoldChange” value was 2.636. The “DNAI7 log2FoldChange” value was 4.138, the “DOCK5 log2FoldChange” value was 2.9913 and the “DTX1 log2FoldChange” value was 4.306. The “DUSP9 log2FoldChange” value was 2.25, the “EAF2 log2FoldChange” value was 2.082 and the “EDA log2FoldChange” value was 4.8176. The “EFCAB12 log2FoldChange” value was 2.979, the “EGFL7 log2FoldChange” value was 2.196 and the “EGLN3 log2FoldChange” value was 2.576. For the same molecule, the “EID3 log2FoldChange” value was 2.42, the “ELAPOR2 log2FoldChange” value was 4.1571 and the “ELOVL3 log2FoldChange” value was 3.984. For the same molecule, the “EPHB6 log2FoldChange” value was 4.725, the “ERBB3 log2FoldChange” value was 2.384 and the “ERVV-1 log2FoldChange” value was 6.315. For the same molecule, the “FAIM2 log2FoldChange” value was 2.169, the “FAM43B log2FoldChange” value was 2.485 and the “FAM71F1 log2FoldChange” value was 2.207. For the same molecule, the “FAM78A log2FoldChange” value was 2.232, the “FAM107A log2FoldChange” value was 2.013 and the “FAM131C log2FoldChange” value was 2.228. For the same molecule, the “FANK1 log2FoldChange” value was 2.642, the “FAT2 log2FoldChange” value was 2.483 and the “FBLN2 log2FoldChange” value was 5.485. The “FBLN5 log2FoldChange” value was 4.419, the “FBXO2 log2FoldChange” value was 2.58 and the “FGF13 log2FoldChange” value was 3.276. For the same molecule, the “FIBIN log2FoldChange” value was 2.106, the “FKBP1B log2FoldChange” value was 2.251 and the “FOLR1 log2FoldChange” value was 2.626. For the same molecule, the “FOXO6 log2FoldChange” value was 2.278, the “FRK log2FoldChange” value was 2.849 and the “FSTL5 log2FoldChange” value was 5.479. For the same molecule, the “FXYD6 log2FoldChange” value was 4.385, the “GABRB1 log2FoldChange” value was 3.597 and the “GABRD log2FoldChange” value was 5.7221. The “GABRQ log2FoldChange” value was 7.349, the “GALNT6 log2FoldChange” value was 2.317 and the “GDPD1 log2FoldChange” value was 2.176. For the same molecule, the “GFY log2FoldChange” value was 3.527, the “GLB1L2 log2FoldChange” value was 6.148 and the “GNG4 log2FoldChange” value was 2.04. For the same molecule, the “GNG8 log2FoldChange” value was 3.102, the “GPC3 log2FoldChange” value was 3.37 and the “GPC5 log2FoldChange” value was 2.595. For the same molecule, the “GRB14 log2FoldChange” value was 2.215, the “GRHL3 log2FoldChange” value was 2.762 and the “GRIA2 log2FoldChange” value was 4.688. For the same molecule, the “GRIA4 log2FoldChange” value was 3.3, the “GRID2IP log2FoldChange” value was 3.773 and the “GRIN3B log2FoldChange” value was 5.631. For the same molecule, the “GSTO2 log2FoldChange” value was 2.18, the “HAND1 log2FoldChange” value was 4.809 and the “HAPLN3 log2FoldChange” value was 2.0919. For the same molecule, the “HBA1 log2FoldChange” value was 5.471, the “HBA2 log2FoldChange” value was 4.292 and the “HEPHL1 log2FoldChange” value was 2.403. The “HGF log2FoldChange” value was 3.276, the “HHIP log2FoldChange” value was 3.119 and the “HIF3A log2FoldChange” value was 5.349. For the same molecule, the “HLA-DMB log2FoldChange” value was 2.342, the “HMCN2 log2FoldChange” value was 3.444 and the “HOATZ log2FoldChange” value was 4.467. For the same molecule, the “HOXA13 log2FoldChange” value was 2.2385, the “HPCAL4 log2FoldChange” value was 5.769 and the “HSPA2 log2FoldChange” value was 3.557. For the same molecule, the “HTR6 log2FoldChange” value was 3.33, the “ID4 log2FoldChange” value was 2.033 and the “IER3 log2FoldChange” value was 2.061. The “IFITM10 log2FoldChange” value was 2.3164, the “IGFBP3 log2FoldChange” value was 2.818 and the “IGFN1 log2FoldChange” value was 4.535. The “IGLON5 log2FoldChange” value was 3.821, the “IGSF1 log2FoldChange” value was 6.9503 and the “IGSF9 log2FoldChange” value was 5.356. For the same molecule, the “IGSF11 log2FoldChange” value was 3.128, the “IL1A log2FoldChange” value was 2.307 and the “IL18R1 log2FoldChange” value was 2.881. For the same molecule, the “IL21R log2FoldChange” value was 5.107, the “INSRR log2FoldChange” value was 3.812 and the “INSYN1 log2FoldChange” value was 2.89. The “ITGAX log2FoldChange” value was 6.404, the “ITIH5 log2FoldChange” value was 7.18 and the “JAK3 log2FoldChange” value was 3.281. For the same molecule, the “JAKMIP1 log2FoldChange” value was 6.861, the “JPH3 log2FoldChange” value was 7.177 and the “JPH4 log2FoldChange” value was 6.374. For the same molecule, the “KCNH7 log2FoldChange” value was 3.228, the “KCNK3 log2FoldChange” value was 2.911 and the “KCNN1 log2FoldChange” value was 6.119. The “KCNN3 log2FoldChange” value was 2.959, the “KCNQ2 log2FoldChange” value was 7.079 and the “KCNQ3 log2FoldChange” value was 6.35. For the same molecule, the “KCNU1 log2FoldChange” value was 3.505, the “KDR log2FoldChange” value was 2.185 and the “KIAA1755 log2FoldChange” value was 3.46. The “KIF26A log2FoldChange” value was 3.322, the “KIRREL2 log2FoldChange” value was 3.351 and the “KISS1R log2FoldChange” value was 5.189. The “KLRG1 log2FoldChange” value was 3.015, the “KNDC1 log2FoldChange” value was 5.452 and the “KRT81 log2FoldChange” value was 2.561. For the same molecule, the “LAMA1 log2FoldChange” value was 4.927, the “LANCL3 log2FoldChange” value was 2.567 and the “LGI3 log2FoldChange” value was 4.02. For the same molecule, the “LGI4 log2FoldChange” value was 3.612, the “LHX6 log2FoldChange” value was 2.492 and the “LINGO1 log2FoldChange” value was 3.184. The “LMX1B log2FoldChange” value was 4.789, the “LRAT log2FoldChange” value was 2.695 and the “LRRC4B log2FoldChange” value was 6.224. The “LRRC63 log2FoldChange” value was 3.034, the “LTK log2FoldChange” value was 2.536 and the “LUM log2FoldChange” value was 2.768. The “MACC1 log2FoldChange” value was 2.159, the “MAGEC1 log2FoldChange” value was 3.487 and the “MAK log2FoldChange” value was 2.409. For the same molecule, the “MDFI log2FoldChange” value was 3.485, the “MEFV log2FoldChange” value was 4.614 and the “MEGF11 log2FoldChange” value was 3.91. The “MGAT3 log2FoldChange” value was 4.144, the “MME log2FoldChange” value was 2.372 and the “MORN3 log2FoldChange” value was 2.131. The “MPP7 log2FoldChange” value was 2.694, the “MRO log2FoldChange” value was 3.525 and the “MT3 log2FoldChange” value was 2.775. For the same molecule, the “MYEOV log2FoldChange” value was 3.238, the “MYO1D log2FoldChange” value was 2.853 and the “MYOZ2 log2FoldChange” value was 6.009. The “NALF2 log2FoldChange” value was 4.418, the “NAT16 log2FoldChange” value was 3.0286 and the “NCALD log2FoldChange” value was 2.788. The “NCAN log2FoldChange” value was 5.945, the “NCCRP1 log2FoldChange” value was 5.22 and the “NECTIN4 log2FoldChange” value was 2.229. The “NFASC log2FoldChange” value was 2.355, the “NFATC4 log2FoldChange” value was 2.3144 and the “NFIA log2FoldChange” value was 2.067. For the same molecule, the “NKD1 log2FoldChange” value was 3.284, the “NKX1-2 log2FoldChange” value was 2.899 and the “NLRP1 log2FoldChange” value was 3.5059. For the same molecule, the “NME5 log2FoldChange” value was 2.6336, the “NPY2R log2FoldChange” value was 3.759 and the “NSG1 log2FoldChange” value was 5.809. The “NTNG2 log2FoldChange” value was 2.905, the “NXPH3 log2FoldChange” value was 2.7857 and the “OLFM2 log2FoldChange” value was 3.458. For the same molecule, the “OLIG2 log2FoldChange” value was 6.361, the “OTOGL log2FoldChange” value was 4.502 and the “PALM3 log2FoldChange” value was 2.0048.
